The target in one assay is T1, PI3K β (Homo sapiens, UniProt P42338).
T1 construct: Full length p110 subunits of PI3K α, β and δ, N-terminally labeled with polyHis tag; polyHis (N); made in house; host or cells: Sf9 insect cells (baculovirus)
In words: In vitro PI3 kinase enzyme assay (beta), ATP loss, bioluminescence.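 Also: purified p110β/p85 heterodimer with PtdIns(4,5)P2 as acceptor, incubated at room temperature, leftover ATP read by luminescence, inhibition scaled to compound-free wells with and without enzyme.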 In kind it is biochemical. Conditions: read-out: PI3Kβ ATP loss IC50.

In assay [1] the test system is phosphorylation of Serine 473 in Akt, HCT 116 human colon carcinoma cells. Put plainly: Cell-based phospho-AKT Ser473 assay (MSD sandwich immunoassay, IGF-1 stimulated). The settings on record: read-out: HCT 116 pAKT IC50. The procedure:
This assay determines the ability of test compounds to inhibit the phosphorylation of […] in Akt using a MSD based sandwich immunoassay (Meso Scale Detection, catalogue # N411CAB-1). […] Prior to the assay cells were detached from the culture flask with trypsin, and re-suspended in complete media to give a final concentration of 1.6×10^5 cells per ml. Aliquots (100 μl) of the HCT116 cell suspension were seeded into each well of a 96 well tissue culture plate (Corning Incorporated COSTAR, catalogue#3595) to give a final density of 16,000 cells per well. Cells were then incubated overnight at 37° C. The following day the cells were treated with serially diluted test compounds and incubated for 2 hours at 37° C. […] As a maximum response control, wells contained 0.5% DMSO in place of test compound. The plates were mixed at 700 rpm for 2 min to ensure even distribution of the test compound and incubated for 2 hours at 37° C. Cells were then stimulated with insulin-like growth factor 1 (Sigma, product #13769) at final concentration of 100 ng/ml for 15 minutes at 37° C. The media was then removed and the cells treated with 80 μl cell-lysis buffer (MSD) containing a cocktail of protease and phosphatase inhibitors for one hour at 4° C. […] The detection antibody was removed and plates were then washed four times with 200 μl per well of Tris wash buffer. An aliquot of 150 μl of diluted MSD read buffer was then applied to each well, and the electrochemiluminescent signal was measured using a MSD SECTORTM plate reader. This instrument measures the intensity of emitted light to determine a quantitative measure of phosphorylated Akt in each well. The dose-response data obtained with each compound were analyzed and the IC50 inhibition of Akt phosphorylation at Ser473 calculated.

Where [2] appears, read: Homo sapiens, HCT-116, HCT 116 cells.

29 compounds from US7928140B2, “Benzothiazole PI3 kinase modulators for cancer treatment” (Amgen Inc., priority 2007, dated 2011) can be followed below.

Like-named read-outs stand apart in the source and are kept apart here. A value given as a limit tells only on which side of the number the result lay.

T1 sequence (P42338 whole entry): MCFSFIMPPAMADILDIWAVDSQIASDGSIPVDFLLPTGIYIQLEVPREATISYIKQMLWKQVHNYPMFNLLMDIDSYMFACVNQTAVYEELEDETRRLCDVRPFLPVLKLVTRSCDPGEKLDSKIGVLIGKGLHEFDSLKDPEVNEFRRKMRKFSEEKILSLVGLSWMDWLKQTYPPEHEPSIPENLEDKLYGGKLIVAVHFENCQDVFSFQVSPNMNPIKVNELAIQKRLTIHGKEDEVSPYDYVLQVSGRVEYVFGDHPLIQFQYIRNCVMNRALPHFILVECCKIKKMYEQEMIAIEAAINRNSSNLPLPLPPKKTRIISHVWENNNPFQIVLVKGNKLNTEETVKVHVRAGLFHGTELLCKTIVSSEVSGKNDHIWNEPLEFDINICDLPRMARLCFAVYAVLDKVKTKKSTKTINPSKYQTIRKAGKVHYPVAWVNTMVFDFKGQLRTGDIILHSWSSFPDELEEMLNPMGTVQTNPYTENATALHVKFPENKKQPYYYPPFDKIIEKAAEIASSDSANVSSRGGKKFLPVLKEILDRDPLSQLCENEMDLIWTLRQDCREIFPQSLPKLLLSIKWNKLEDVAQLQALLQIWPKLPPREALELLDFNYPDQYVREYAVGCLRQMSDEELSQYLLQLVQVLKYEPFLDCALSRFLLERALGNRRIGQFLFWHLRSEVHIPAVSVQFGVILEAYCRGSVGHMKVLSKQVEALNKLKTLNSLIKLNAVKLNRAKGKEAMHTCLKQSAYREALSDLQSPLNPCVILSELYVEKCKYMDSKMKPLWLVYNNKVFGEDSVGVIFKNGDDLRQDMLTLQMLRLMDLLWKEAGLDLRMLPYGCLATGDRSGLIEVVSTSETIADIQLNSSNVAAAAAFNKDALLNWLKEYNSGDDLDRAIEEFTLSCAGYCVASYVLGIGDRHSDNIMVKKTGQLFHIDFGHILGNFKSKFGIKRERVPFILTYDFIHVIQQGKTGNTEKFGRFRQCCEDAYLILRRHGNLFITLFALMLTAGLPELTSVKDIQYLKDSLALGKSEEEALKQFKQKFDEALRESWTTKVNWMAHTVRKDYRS
T1 sequence (P27986 whole entry partner): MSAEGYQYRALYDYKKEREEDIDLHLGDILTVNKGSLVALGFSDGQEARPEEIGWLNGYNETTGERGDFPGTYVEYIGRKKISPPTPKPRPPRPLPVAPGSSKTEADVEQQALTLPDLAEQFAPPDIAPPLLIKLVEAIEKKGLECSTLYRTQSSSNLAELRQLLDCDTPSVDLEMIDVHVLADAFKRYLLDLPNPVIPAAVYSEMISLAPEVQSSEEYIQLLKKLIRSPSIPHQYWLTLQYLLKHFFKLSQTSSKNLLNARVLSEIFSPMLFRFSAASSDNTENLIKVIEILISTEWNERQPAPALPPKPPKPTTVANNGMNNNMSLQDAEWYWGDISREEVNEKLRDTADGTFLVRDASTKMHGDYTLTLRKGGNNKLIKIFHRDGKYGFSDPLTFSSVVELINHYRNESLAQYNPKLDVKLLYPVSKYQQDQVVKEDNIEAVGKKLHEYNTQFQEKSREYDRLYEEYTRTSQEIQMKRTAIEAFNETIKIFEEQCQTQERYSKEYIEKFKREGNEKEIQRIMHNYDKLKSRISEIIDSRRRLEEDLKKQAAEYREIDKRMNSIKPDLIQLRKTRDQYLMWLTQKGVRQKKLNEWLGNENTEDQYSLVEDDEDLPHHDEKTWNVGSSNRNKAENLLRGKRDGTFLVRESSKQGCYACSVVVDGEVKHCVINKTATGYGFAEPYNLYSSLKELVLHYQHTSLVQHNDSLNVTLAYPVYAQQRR
Description for PI3K β: Full length p110 subunits of PI3K α, β and δ, N-terminally labeled with polyHis tag, were co-expressed with p85 in baculovirus expression vectors in sf9 insect cells. P110/p85 heterodimers were purified by sequential Ni-NTA, Q-HP, and Superdex-100 chromatography. Purified α, β and δ isozymes were stored at −20° C. in 20 mM Tris, pH 8, 0.2M NaCl, 50% glycerol, 5 mM DTT, 2 mM Na cholate.
PI3K enzyme assays (alpha, beta, delta and gamma) were performed in 25 mL with the above final concentrations of components in white polypropylene plates (Costar catalogue #3355). Phosphatidyl inositol phosphoacceptor, PtdIns(4,5)P2 (eg. P4508) was obtained from Echelon Biosciences. The ATPase activity of the alpha and gamma isozymes was not greatly stimulated by PtdIns(4,5)P2 under these conditions and was therefore omitted from the assay of these isozymes. Test compounds were dissolved in DMSO and diluted with three-fold serial dilutions. The compound in DMSO (1 μL) was added per test well, and the inhibition relative to reactions containing no compound, with and without enzyme was determined. After assay incubation at RT, the reaction was stopped and residual ATP determined by addition of an equal volume of a commercial ATP bioluminescence kit (Perkin Elmer EasyLite) according to the manufacturer's instructions, and detected using an Analyst GT luminometer.

Regarding `CC(=O)Nc1nc2ccc(-c3ccnc(SCc4ccccc4)n3)cc2s1` [Example 19, N-(6-(2-(benzylsulfanyl)-4-pyrimidinyl)-1,3-benzothiazol-2-yl)acetamide], the IC50 on PI3K β was 184 nM; in assay [1] (setting [2]), 670 nM.
The matching figures for `CC(=O)Nc1nc2ccc(-c3ccnc(OCCCc4cccnc4)n3)cc2s1` [Example 1, N-(6-(2-(3-(pyridin-3-yl)propoxy)pyrimidin-4-yl)benzo[d]thiazol-2-yl)acetamide]: 3610 nM and 1350 nM.
On to `CC(=O)Nc1nc2ccc(-c3ccnc(N(C)S(=O)(=O)c4ccc(C)cc4)n3)cc2s1` [Example 90, N-(6-(2-(N,4-Dimethylphenylsulfonamido)pyrimidin-4-yl)benzo[d]thiazol-2-yl)acetamide], for which the 50% inhibitory concentration (IC50) at PI3K β was determined as 48.8 nM; in assay [1] (setting [2]), 51.6 nM.
Turning to `CC(=O)Nc1nc2ccc(-c3cnc(Cl)c(NS(=O)(=O)c4cccc(C(C)(C)C)c4)c3)cc2s1` [Example 173, N-(6-(5-(3-tert-butylphenylsulfonamido)-6-chloropyridin-3-yl)benzo[d]thiazol-2-yl)acetamide], the figures for the IC50 (at PI3K β; in assay [1] (setting [2])) were 6.9 nM and 5.1 nM, respectively.
As for `CSc1nccc(-c2ccc3nc(NC(C)=O)sc3c2)n1` [Example 50, N-(6-(2-(methylsulfanyl)-4-pyrimidinyl)-1,3-benzothiazol-2-yl)acetamide], the half-inhibitory concentration (IC50) at PI3K β is 1180 nM; in assay [1] (setting [2]), 1050 nM.
Regarding `CC(=O)Nc1nc2ccc(-c3ccnc(OCc4cccc(F)c4)n3)cc2s1` [Example 12, N-(6-(2-((3-fluorobenzyl)oxy)-4-pyrimidinyl)-1,3-benzothiazol-2-yl)acetamide], the half-maximal inhibitory concentration (IC50) on PI3K β worked out at 3960 nM; in assay [1] (setting [2]), 3930 nM.
The matching figures for `CC(=O)Nc1nc2ccc(-c3ccnc(NS(=O)(=O)c4ccc(F)cc4)n3)cc2s1` [Example 80, N-(6-(2-(((4-fluorophenyl)sulfonyl)amino)-4-pyrimidinyl)-1,3-benzothiazol-2-yl)acetamide]: 405 nM and 3220 nM.
For the compound `COc1ccc(S(=O)(=O)Nc2cncc(-c3ccc4nc(NC(C)=O)sc4c3)c2)cc1` [Example 195, N-(6-(5-(4-methoxyphenylsulfonamido)pyridin-3-yl)benzo[d]thiazol-2-yl)acetamide], the 50% inhibitory concentration (IC50) on PI3K β is 21.7 nM; in assay [1] (setting [2]), 32.8 nM.
With `Nc1nc2ccc(-c3cnc(Cl)c(NS(=O)(=O)c4ccc(F)cc4)c3)cc2s1` [Example 192, N-(5-(2-aminobenzo[d]thiazol-6-yl)-2-chloropyridin-3-yl)-4-fluorobenzenesulfonamide], the half-maximal inhibitory concentration (IC50) on PI3K β worked out at 11.6 nM; in assay [1] (setting [2]), 151 nM.
Take `COc1ccc(S(=O)(=O)Nc2cc(-c3ccc4nc(NC(C)=O)sc4c3)cnc2C)cc1` [Example 116, N-(6-(5-(((4-methoxyphenyl)sulfonyl)amino)-6-methyl-3-pyridinyl)-1,3-benzothiazol-2-yl)acetamide]: the 50% inhibitory concentration (IC50) on PI3K β amounted to 12 nM; in assay [1] (setting [2]), 9.3 nM.
As for “N-(6-(2-(3-morpholino)propoxy)-4-pyrimidinyl)-1,3-benzothiazol-2-yl)acetamide [Example 10]”, the IC50 on PI3K β stood at 11000 nM; in assay [1] (HCT 116 cells), 801 nM.
For the compound `CC(=O)Nc1nc2ccc(-c3cnc(Cl)c(NS(=O)(=O)c4ccc(C(C)(C)C)cc4)c3)cc2s1` [Example 191, N-(6-(5-(4-tert-butylphenylsulfonamido)-6-chloropyridin-3-yl)benzo[d]thiazol-2-yl)acetamide], the values for the 50% inhibitory concentration (IC50) (at PI3K β; in assay [1] (setting [2])) were 4.2 nM and 2.6 nM, respectively.
The like results for `CC(=O)Nc1nc2ccc(-c3ccnc(N(C)S(=O)(=O)c4ccccc4F)n3)cc2s1` [Example 92, N-(6-(2-(2-Fluoro-N-methylphenylsulfonamido)pyrimidin-4-yl)benzo[d]thiazol-2-yl)acetamide] were, in that order, 310 nM and 888 nM.
`COc1ccc(S(=O)(=O)Nc2cncc(-c3ccc4nc(NC(C)=O)sc4c3)n2)cc1` [Example 118, N-(6-(6-(((4-methoxyphenyl)sulfonyl)amino)-2-pyrazinyl)-1,3-benzothiazol-2-yl)acetamide]: the IC50 stood at 17.9 nM at PI3K β and 147 nM in assay [1] (setting [2]).
The like results for `CC(=O)Nc1nc2ccc(-c3cnc(Cl)c(NS(=O)(=O)c4ccc(C(F)(F)F)cc4)c3)cc2s1` [Example 190, N-(6-(6-chloro-5-(4-(trifluoromethyl)phenylsulfonamido)pyridin-3-yl)benzo[d]thiazol-2-yl)acetamide] were, in that order, 7.4 nM and 11.5 nM.
For `CC(=O)Nc1nc2ccc(-c3cccc(N(C)S(=O)(=O)c4ccc(C)cc4)n3)cc2s1` [Example 74, N-(6-(6-(N,4-Dimethylphenylsulfonamido)pyridin-2-yl)benzo[d]thiazol-2-yl)acetamide], the figures for the IC50 (at PI3K β; in assay [1] (setting [2])) were 202 nM and 85.9 nM, respectively.
The like results for `CC(=O)Nc1nc2ccc(-c3cnc(Cl)c(NS(=O)(=O)c4cccc(Cl)c4)c3)cc2s1` [Example 185, N-(6-(6-chloro-5-(3-chlorophenylsulfonamido)pyridin-3-yl)benzo[d]thiazol-2-yl)acetamide] were, in that order, 8.1 nM and 5.9 nM.
The matching figures for `CC(=O)Nc1nc2ccc(-c3cnc(Cl)c(NS(=O)(=O)c4cccc(F)c4)c3)cc2s1` [Example 183, N-(6-(6-chloro-5-(3-fluorophenylsulfonamido)pyridin-3-yl)benzo[d]thiazol-2-yl)acetamide]: 10.4 nM and 16.9 nM.
Take `CC(=O)Nc1nc2ccc(-c3ccnc(OCc4ccc(F)cc4)n3)cc2s1` [Example 39, N-(6-(2-((4-fluorobenzyl)oxy)-4-pyrimidinyl)-1,3-benzothiazol-2-yl)acetamide]: the half-maximal inhibitory concentration (IC50) at PI3K β was 7910 nM; in assay [1] (setting [2]), more than 40000 nM.
As to `COc1ccc(S(=O)(=O)Nc2cc(-c3ccc4nc(NC(C)=O)sc4c3)ccn2)cc1` [Example 217, N-(6-(2-(4-methoxyphenylsulfonamido)pyridin-4-yl)benzo[d]thiazol-2-yl)acetamide], the results for the IC50 (on PI3K β; in assay [1] (setting [2])) were 117 nM and 71.1 nM, respectively.
The like results for `CCN(c1nccc(-c2ccc3nc(NC(C)=O)sc3c2)n1)S(=O)(=O)c1ccc(OC)cc1` [Example 89, N-(6-(2-(N-Ethyl-4-methoxyphenylsulfonamido)pyrimidin-4-yl)benzo[d]thiazol-2-yl)acetamide] were, in that order, 442 nM and 692 nM.
`COc1ccc(S(=O)(=O)Nc2nccc(-c3ccc4nc(NC(C)=O)sc4c3)n2)cc1` [Example 78, N-(6-(2-(((4-methoxyphenyl)sulfonyl)amino)-4-pyrimidinyl)-1,3-benzothiazol-2-yl)acetamide]: the concentration for half-maximal inhibition (IC50) came out at 67.2 nM on PI3K β and 428 nM in assay [1] (setting [2]).
The matching figures for `CC(=O)Nc1nc2ccc(-c3ccnc(NS(=O)(=O)c4cccc(F)c4)n3)cc2s1` [Example 82, N-(6-(2-(((3-fluorophenyl)sulfonyl)amino)-4-pyrimidinyl)-1,3-benzothiazol-2-yl)acetamide]: 304 nM and 3900 nM.
`CC(=O)Nc1nc2ccc(-c3ccnc(Sc4cccc(F)c4)n3)cc2s1` [Example 109, N-(6-(2-((3-fluorophenyl)sulfanyl)-4-pyrimidinyl)-1,3-benzothiazol-2-yl)acetamide]: the IC50 was determined as 120 nM on PI3K β and 1840 nM in assay [1] (setting [2]).
The matching figures for `CC(=O)Nc1nc2ccc(-c3cnc(Cl)c(NS(=O)(=O)c4ccccc4)c3)cc2s1` [Example 181, N-(6-(6-chloro-5-(phenylsulfonamido)pyridin-3-yl)benzo[d]thiazol-2-yl)acetamide]: 14.5 nM and 10.4 nM.
With `CC(=O)Nc1nc2ccc(-c3ccnc(NC(C)(C)c4ccccc4)n3)cc2s1` [Example 100], the results for the IC50 (on PI3K β; in assay [1] (setting [2])) were 595 nM and 698 nM, respectively.
The like results for `CC(=O)Nc1nc2ccc(-c3cnc(Cl)c(NS(=O)(=O)c4cccc(C(F)(F)F)c4)c3)cc2s1` [Example 172, N-(6-(6-chloro-5-(3-(trifluoromethyl)phenylsulfonamido)pyridin-3-yl)benzo[d]thiazol-2-yl)acetamide] were, in that order, 6.9 nM and 7 nM.
Consider `CC(=O)Nc1nc2ccc(-c3ccnc(Sc4ccccc4C)n3)cc2s1` [Example 34, N-(6-(2-((2-methylphenyl)sulfanyl)-4-pyrimidinyl)-1,3-benzothiazol-2-yl)acetamide], for which the IC50 at PI3K β came to 1090 nM; in assay [1] (setting [2]), 2160 nM.
The like results for `CC(=O)Nc1nc2ccc(-c3cnc(Cl)c(NS(=O)(=O)c4ccc(Cl)cc4)c3)cc2s1` [Example 180, N-(6-(6-chloro-5-(4-chlorophenylsulfonamido)pyridin-3-yl)benzo[d]thiazol-2-yl)acetamide] were, in that order, 8.7 nM and 12.6 nM.

Usually IC50 stands for the point on the concentration scale where inhibition reaches its midpoint.
